According to patent US8901089B2, “Composition comprising an amorphous non-crystalline glass form of roxithromycin” (North-West University, priority 2009, dated 2014):
≈ marks a conversion by molar mass, not a printed value.

How the values were obtained:
Type in all cases: physicochemical
[1] = Exposure of Form-II to 50 degrees Celsius at zero and 75% relative humidity (microscopy); settings: 18 days
Source text: Form-II was further subjected to a temperature of 50 degrees Celsius at respectively zero (FIG. 3) and 75% relative humidity (FIG. 4) for 18 days.

[2] = Chemical stability by HPLC analysis; settings: after solubility test
Protocol: (§1) The concentrations of the five filtrates of Form-II and roxithromycin raw material respectively are determined by HPLC (high performance liquid chromatography) assay. The HPLC assay is performed utilising a mobile phase of 30 g/L ammonium dihydrogen phosphate buffer at pH 5.3. The pH is adjusted with sodium hydroxide solution and 310 ml of the buffer solution is mixed with 690 ml acetonitrile. A Luna C18 150 mm×4.6 mm column is used with a flow rate of 1.0 ml/min and a wavelength of 205 nm. Validation of this method provides a linear regression r^2 of 0.9998.

[3] = Vapour sorption experiments (moisture isotherm)
Source text: The sharp increase is attributed to the condensation of water on the sample holder.

[4] = Solubility of Form-II and roxithromycin raw material in three media, HPLC assay; settings: for solubility at 24 h: 37 °C, thermodynamic from solid
Protocol: In further analysis of the novel Form-II, five test tubes with 100 mg of Form-II and 10 ml of one of the following solubility mediums respectively, namely, acetate buffer (pH 4.5), phosphate buffer (pH 6.8) and distilled water were filled.
The test tubes are then fixed to a rotating axis (54 rpm) and submerged in a water bath at 37 degrees Celsius±2 degrees Celsius for twenty-four hours. The contents of the test tubes are filtered through a 0.45 μm filter and subsequently the respective filtrates are diluted.
as §1

solubility at 24 h ([4]; pH 4.5, aqueous buffer) [µg/mL]	solubility at 24 h ([4]; pH 6.8, aqueous buffer) [µg/mL]	solubility at 24 h ([4]; water) [µg/mL]	solubility ([4]; pH 4.5, aqueous buffer) [µg/mL]	solubility ([4]; pH 6.8, aqueous buffer) [µg/mL]	solubility ([4]; water) [µg/mL]	Structure (SMILES)	crystallisation ([1]; 75% relative humidity)	crystallisation ([1]; zero relative humidity)	chemical stability (HPLC analysis) [2]	increase in weight (moisture isotherm) ([3]; from 70 to 90% RH, attributed to condensation of water on the sample holder)	weight loss upon decreasing the humidity ([3]; from 90 to 0% RH, returned to starting weight) [%]	increase in weight (moisture isotherm) ([3]; relative humidity up to 60% RH)	solid state after high levels of moisture ([3]; vapour sorption up to 90% RH)	solubility ([4]; acetate buffer (pH 4.5), 37 degrees Celsius, twenty-four hours) [µg/mL]	solubility ([4]; distilled water, 37 degrees Celsius, twenty-four hours) [µg/mL]	more soluble than monohydrated roxithromycin (theoretical solubility of 1.8 μg/ml) ([4]; in water) [%]	solubility ([4]; phosphate buffer (pH 6.8), 37 degrees Celsius, twenty-four hours) [µg/mL]
–	–	–	–	–	–	CC[C@H]1OC(=O)[C@H](C)[C@@H](O[C@H]2C[C@@](C)(OC)[C@@H](O)[C@H](C)O2)[C@H](C)[C@@H](O[C@@H]2O[C@H](C)C[C@H](N(C)C)[C@H]2O)[C@](C)(O)C[C@@H](C)C(=NOCOCCOC)[C@H](C)[C@@H](O)[C@]1(C)O [Form-II, 3R,4S,5S,6R,7R,9R,11S,12R,13S,14R-6-[(2S,3R,4S,6R)-4-dimethylamino-3-hydroxy-6-methyloxan-2-yl]oxy-14-ethyl-7,12,13-trihydroxy-4-[(2R,4R,5S,6S)-5-hydroxy-4-methoxy-4,6-dimethyloxan-2-yl]oxy-10-(2-methoxyethoxymethoxyimino)-3,5,7,9,11,13-hexamethyl-1-oxacyclotetradecan-2-one]	no crystallisation	no crystallisation	chemically stable	up to 4%	4	approximately 1.5%	remained amorphous	762.71 ± 2.6 (≈ 911 µM)	32.86 ± 3.5 (≈ 39.3 µM)	1798	134.4 ± 4.9 (≈ 161 µM)
370 ± 8.3 (≈ 442 µM)	74.8 ± 5.1 (≈ 89.4 µM)	1.7 ± 0.6 (≈ 2.03 µM)	370 (≈ 442 µM)	74.8 (≈ 89.4 µM)	1.8 (≈ 2.15 µM)	CC[C@H]1OC(=O)[C@H](C)[C@@H](O[C@H]2C[C@@](C)(OC)[C@@H](O)[C@H](C)O2)[C@H](C)[C@@H](O[C@@H]2O[C@H](C)C[C@H](N(C)C)[C@H]2O)[C@](C)(O)C[C@@H](C)/C(=N\OCOCCOC)[C@H](C)[C@@H](O)[C@]1(C)O [roxithromycin raw material, roxithromycin]	–	–	–	–	–	–	–	–	–	–	–
